Laboratory results taken from ChEMBL document CHEMBL3864166, “4-Carbonyl-2,6-dibenzylidenecyclohexanone derivatives as small molecule inhibitors of STAT3 signaling pathway” (Bioorg Med Chem, 2016).
The source made the active and inactive calls. The calls are words filed in the database; no cut-off is given here.

Legend:
[1] = Antiproliferative activity against human MDA-MB-231 cells after 48 hrs by MTT assay; type: functional, cell-based; details: MDA-MB-231, 48 h
[2] = Antiproliferative activity against human A549 cells after 48 hrs by MTT assay; type: functional, cell-based; details: A549, 48 h
[3] = Antiproliferative activity against human DU145 cells after 48 hrs by MTT assay; type: functional, cell-based; details: DU-145, 48 h
DU-145 = test: Selectivity ratio of IC50 for human DU145 cells to IC50 for human MDA-MB-231 cells; type: functional
[4] = molecular target: T1, Signal transducer and activator of transcription 3 (Homo sapiens, UniProt P40763); test: Inhibition of STAT3 phosphorylation at tyr705 in human MDA-MB-231 cells after 24 hrs by Western blot analysisis; type: cell-based
T1 sequence (P40763 whole entry): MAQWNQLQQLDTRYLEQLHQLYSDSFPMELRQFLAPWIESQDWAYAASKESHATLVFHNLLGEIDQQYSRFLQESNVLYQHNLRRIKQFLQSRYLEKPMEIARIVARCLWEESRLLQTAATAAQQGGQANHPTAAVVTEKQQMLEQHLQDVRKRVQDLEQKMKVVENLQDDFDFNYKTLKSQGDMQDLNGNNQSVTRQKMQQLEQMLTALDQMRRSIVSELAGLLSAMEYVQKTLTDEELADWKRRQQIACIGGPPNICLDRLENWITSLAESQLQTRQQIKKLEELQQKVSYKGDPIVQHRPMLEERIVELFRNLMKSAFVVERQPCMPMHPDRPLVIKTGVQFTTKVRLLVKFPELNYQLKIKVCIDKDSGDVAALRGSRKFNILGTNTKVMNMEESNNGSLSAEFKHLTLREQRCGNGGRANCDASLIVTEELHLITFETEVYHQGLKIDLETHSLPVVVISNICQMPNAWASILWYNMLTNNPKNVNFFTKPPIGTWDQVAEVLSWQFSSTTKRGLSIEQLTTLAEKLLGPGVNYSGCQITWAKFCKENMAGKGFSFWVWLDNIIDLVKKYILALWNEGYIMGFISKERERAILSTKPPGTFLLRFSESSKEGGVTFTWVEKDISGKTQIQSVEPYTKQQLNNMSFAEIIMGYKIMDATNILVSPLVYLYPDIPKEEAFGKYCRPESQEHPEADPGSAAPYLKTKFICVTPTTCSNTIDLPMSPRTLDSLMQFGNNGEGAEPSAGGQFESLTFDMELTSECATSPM

[5] = molecular target: T1, Signal transducer and activator of transcription 3; test: Inhibition of STAT3 phosphorylation at tyr705 in human MDA-MB-231 cells at 4 uM after 24 hrs by Western blot analysisis; type: cell-based
[6] = molecular target: T1, Signal transducer and activator of transcription 3; test: Inhibition of STAT3 phosphorylation at tyr705 in human A549 cells after 24 hrs by Western blot analysisis; type: cell-based
A549 [7] = test: Induction of apoptosis in human A549 cells assessed increase in cleaved PARP levels up to 4 uM after 24 hrs by Western blot analysisis; type: functional, cell-based
MDA-MB-231 = test: Induction of apoptosis in human MDA-MB-231 cells assessed increase in cleaved PARP levels at 1 to 4 uM after 24 hrs by Western blot analysisis; type: functional, cell-based
[8] = molecular target: T1, Signal transducer and activator of transcription 3; test: Inhibition of IL6-stimulated STAT3 phosphorylation at Tyr-705 residue in human MDA-MB-231 cells at 1 to 4 uM preincubated for 2 hrs followed by IL6 stimulation measured after 30 mins by Western blot analysisis; type: cell-based
[9] = Effect on total STAT3 protein expression in human MDA-MB-231 cells at 1 to 4 uM after 24 hrs by Western blot analysis; type: ADME, cell-based; details: mda-mb-231, 24 h
[10] = molecular target: T1, Signal transducer and activator of transcription 3; test: Inhibition of STAT3 phosphorylation at tyr705 in human A549 cells at 4 uM after 24 hrs by Western blot analysisis; type: cell-based
[11] = Cytotoxicity against human HL-7702 cells assessed as reduction in cell viability after 48 hrs by MTT assay; type: toxicity, cell-based; details: l02, 48 h
[12] = Downregulation of IL6-stimulated STAT3 expression in human MDA-MB-231 cells at 1 to 4 uM preincubated for 2 hrs followed by IL6 stimulation measured after 30 mins by Western blot analysisis; type: functional, cell-based
[13] = molecular target: T1, Signal transducer and activator of transcription 3; test: Binding affinity to STAT3 (unknown origin) expressed in Escherichia coli expression system by SPR assay
[14] = Effect on total STAT3 protein expression in human A549 cells at 1 to 4 uM after 24 hrs by Western blot analysis; type: ADME, cell-based; details: a549, 24 h
A549 [15] = test: Selectivity ratio of IC50 for human DU145 cells to IC50 for human A549 cells; type: functional

Row | Structure (SMILES) | IC50 [1] | IC50 [2] | IC50 [3] | Ratio IC50 (DU-145) | also measured
1 | COc1ccc(/C=C2\CC(C(=O)NCCO)C/C(=C\c3ccc(OC)cc3)C2=O)cc1 (centres undefined) | 11.7 µM | 13.7 µM | > 20 µM | – | –
2 | CCN(CC)CCNC(=O)C1C/C(=C\c2ccc(OC)c(O)c2)C(=O)/C(=C/c2ccc(OC)c(O)c2)C1 (centres undefined) | 6.87 µM | 8.13 µM | > 20 µM | – | –
3 | CCN(CC)CCNC(=O)C1C/C(=C\c2ccc(F)cc2)C(=O)/C(=C/c2ccc(F)cc2)C1 (centres undefined) | 0.64 µM | 1.88 µM | 1.63 µM | 2.9 | inhibition [4]: Dose-dependent effect; inhibition [5]: 100%; inhibition [6]: Dose-dependent effect; Activity (A549 [7]): Active; Activity (MDA-MB-231): Active; inhibition [8]: Active; Activity [9]: Non-Toxic; inhibition [10]: 100%; Activity [11]: Non-Toxic; Activity [12]: Active; Kd [13]: 7.93 µM; Activity [14]: Non-Toxic
4 | CCN(CC)CCNC(=O)C1C/C(=C\c2ccc(OC)cc2)C(=O)/C(=C/c2ccc(OC)cc2)C1 (centres undefined) | 3.78 µM | 6.47 µM | 6.89 µM | 1.8 | –
5 | COc1ccc(/C=C2\CC(C(=O)Nc3cccc(N4CCN(C)CC4)c3)C/C(=C\c3ccc(OC)cc3)C2=O)cc1 (centres undefined) | 3.39 µM | 3.69 µM | 10.1 µM | 3 | –
6 | COc1ccc(/C=C2\CC(C(=O)Nc3cccc(N4CCN(C)CC4)c3)C/C(=C\c3ccc(OC)c(O)c3)C2=O)cc1O (centres undefined) | 1.6 µM | 7.53 µM | 8.29 µM | 5.2 | –
7 | COc1ccc(/C=C2\CC(C(=O)Nc3ccc(N4CCN(C)CC4)cc3)C/C(=C\c3ccc(OC)cc3)C2=O)cc1 (centres undefined) | 3.34 µM | 3.09 µM | 7.03 µM | – | Ratio IC50 (A549 [15]): 2.1
8 | COc1ccc(/C=C2\CC(C(=O)N3CCN(C(C)=O)CC3)C/C(=C\c3ccc(OC)cc3)C2=O)cc1 (centres undefined) | 5.84 µM | 8.02 µM | 17.4 µM | 3 | –
9 | CCN(CC)CCNC(=O)C1C/C(=C\c2ccccc2)C(=O)/C(=C/c2ccccc2)C1 (centres undefined) | 0.63 µM | 3.93 µM | 4.41 µM | 7 | –
10 | CN1CCN(c2cccc(NC(=O)C3C/C(=C\c4ccccc4)C(=O)/C(=C/c4ccccc4)C3)c2)CC1 (centres undefined) | 1.79 µM | 5.96 µM | 8.69 µM | 4.9 | –
11 | CN1CCN(c2ccc(NC(=O)C3C/C(=C\c4ccc(F)cc4)C(=O)/C(=C/c4ccc(F)cc4)C3)cc2)CC1 (centres undefined) | 0.59 µM | 3.17 µM | 2.63 µM | 5.4 | Activity [11]: Non-Toxic
12 | COc1ccc(/C=C2\CC(C(=O)N3CCN(C)CC3)C/C(=C\c3ccc(OC)cc3)C2=O)cc1 (centres undefined) | 5.46 µM | 9.07 µM | 17.6 µM | 3.2 | –
13 | COc1ccc(/C=C2\CC(C(=O)Nc3ccc(N4CCOCC4)cc3)C/C(=C\c3ccc(OC)cc3)C2=O)cc1 (centres undefined) | 4.21 µM | 2.76 µM | 15.6 µM | – | Ratio IC50 (A549 [15]): 5.7
14 | COc1ccc(/C=C2\CC(C(=O)NC(C)C)C/C(=C\c3ccc(OC)cc3)C2=O)cc1 (centres undefined) | > 20 µM | 15.1 µM | > 20 µM | – | –
15 | CN1CCN(c2cccc(NC(=O)C3C/C(=C\c4ccc(F)cc4)C(=O)/C(=C/c4ccc(F)cc4)C3)c2)CC1 (centres undefined) | 0.78 µM | 3.84 µM | 5.96 µM | 7.6 | Activity [11]: Non-Toxic
16 | COc1ccc(/C=C2\CC(C(=O)Nc3ccccc3)C/C(=C\c3ccc(OC)cc3)C2=O)cc1 (centres undefined) | > 20 µM | > 20 µM | > 20 µM | – | –
17 | COc1cc(/C=C/C(=O)CC(=O)/C=C/c2ccc(O)c(OC)c2)ccc1O [CURCUMIN] | 24.5 µM | 15.1 µM | 44.7 µM | – | Ratio IC50 (A549 [15]): 3
18 | COc1ccc(/C=C2\CC(C(=O)Nc3ccc(OC)cc3)C/C(=C\c3ccc(OC)cc3)C2=O)cc1 (centres undefined) | > 20 µM | > 20 µM | > 20 µM | – | –
19 | COc1ccc(/C=C2\CC(C(=O)N3CCOCC3)C/C(=C\c3ccc(OC)cc3)C2=O)cc1 (centres undefined) | 11.2 µM | 16.2 µM | > 20 µM | – | –
